This passage reports inhibition results from patent US8791132B2, “Compounds and methods for treatment of hypertension” (Medivation Technologies, Inc., priority 2011, dated 2014).

Like-named read-outs stand apart in the source and are kept apart here.

The target of experiment [1] is T1, human recombinant adrenergic α2B receptor (Homo sapiens, UniProt P18089).
T1 construct: expressed in transfected cells; host or cells: CHO-K1
T1 sequence (P18089 1-450): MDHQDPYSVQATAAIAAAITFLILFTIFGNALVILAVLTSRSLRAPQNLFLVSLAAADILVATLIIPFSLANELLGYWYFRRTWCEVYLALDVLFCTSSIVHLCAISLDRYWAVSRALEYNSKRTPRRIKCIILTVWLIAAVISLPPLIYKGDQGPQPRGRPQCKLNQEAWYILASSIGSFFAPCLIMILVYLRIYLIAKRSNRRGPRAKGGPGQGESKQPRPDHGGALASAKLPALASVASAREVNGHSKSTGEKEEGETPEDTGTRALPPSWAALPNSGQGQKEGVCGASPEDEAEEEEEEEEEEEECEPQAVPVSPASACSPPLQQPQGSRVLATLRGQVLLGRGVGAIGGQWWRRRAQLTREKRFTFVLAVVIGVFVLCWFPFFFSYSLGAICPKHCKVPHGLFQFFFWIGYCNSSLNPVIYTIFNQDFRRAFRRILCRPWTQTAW
Put plainly: Radioligand binding, adrenergic α2B ([3H]Rauwolscine). In a few lines:
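Values are percent inhibition of specific radioligand binding. The receptor, expressed in CHO-K1 cells, was exposed to 2.5 nM [3H]Rauwolscine at 25° C for 60 min, with 10 μM Prazosin marking non-specific binding.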

Experiment [2] has as its target T2, human recombinant adrenergic α2A receptor (Homo sapiens, UniProt P08913).
T2 construct: expressed in transfected cells; host or cells: insect Sf9 cells
T2 sequence (P08913 1-465): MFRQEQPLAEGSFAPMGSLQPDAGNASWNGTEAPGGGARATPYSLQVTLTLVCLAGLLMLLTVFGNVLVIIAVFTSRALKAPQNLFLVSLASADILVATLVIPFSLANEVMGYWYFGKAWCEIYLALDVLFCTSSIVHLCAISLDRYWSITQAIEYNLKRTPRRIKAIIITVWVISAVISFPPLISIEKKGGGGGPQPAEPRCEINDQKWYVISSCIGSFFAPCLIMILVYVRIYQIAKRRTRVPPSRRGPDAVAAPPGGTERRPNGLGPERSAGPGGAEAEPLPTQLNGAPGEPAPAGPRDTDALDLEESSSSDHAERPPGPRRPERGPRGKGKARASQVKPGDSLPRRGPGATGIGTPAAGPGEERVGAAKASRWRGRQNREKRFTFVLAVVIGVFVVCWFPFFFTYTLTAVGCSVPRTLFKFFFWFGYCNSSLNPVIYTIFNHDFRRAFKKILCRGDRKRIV
Put plainly: Radioligand binding, adrenergic α2A ([3H]MK-912). In a few lines: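 Receptor expressed in Sf9 cells, in 50 mM Tris-HCl pH 7.4, 12.5 mM MgCl2, 2 mM EDTA; compounds incubated with 1 nM [3H]MK-912 for 60 min at 25 °C.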

In experiment [3] the target is T3, rat adrenergic α1B receptor (Rattus norvegicus, UniProt P15823).
T3 construct: rat adrenergic α1B receptor obtained from Wistar Rat liver; from tissue; host or cells: Wistar rat liver
T3 sequence (P15823 1-515): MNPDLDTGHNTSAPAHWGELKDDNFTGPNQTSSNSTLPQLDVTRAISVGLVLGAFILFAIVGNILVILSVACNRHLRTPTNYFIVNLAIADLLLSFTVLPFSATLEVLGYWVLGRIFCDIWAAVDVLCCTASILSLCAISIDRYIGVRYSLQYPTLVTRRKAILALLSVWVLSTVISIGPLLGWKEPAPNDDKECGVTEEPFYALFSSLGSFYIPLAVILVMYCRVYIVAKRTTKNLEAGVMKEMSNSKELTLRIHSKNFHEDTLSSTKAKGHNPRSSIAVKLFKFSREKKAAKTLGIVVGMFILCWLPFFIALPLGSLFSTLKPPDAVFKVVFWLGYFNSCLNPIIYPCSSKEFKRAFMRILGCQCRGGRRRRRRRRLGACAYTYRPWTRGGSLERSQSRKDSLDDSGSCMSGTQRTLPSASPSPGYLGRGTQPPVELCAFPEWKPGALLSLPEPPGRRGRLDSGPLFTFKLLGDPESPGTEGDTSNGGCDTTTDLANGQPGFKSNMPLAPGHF
In words: Radioligand binding, adrenergic α1B ([3H]Prazosin). In a few lines: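 Rat α1B receptor from Wistar rat liver was incubated with 0.25 nM [3H]prazosin for 60 min at 25 °C in 50 mM Tris-HCl, pH 7.4, 0.5 mM EDTA. Non-specific binding was defined with 10 μM phentolamine. Bound radioligand was measured by filtration and counting, reported as percent inhibition of specific binding.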

Experiment [4] addresses T4, human recombinant adrenergic α1D receptor (Homo sapiens, UniProt P25100).
T4 construct: expressed in transfected cells; host or cells: HEK-293
T4 sequence (P25100 1-572): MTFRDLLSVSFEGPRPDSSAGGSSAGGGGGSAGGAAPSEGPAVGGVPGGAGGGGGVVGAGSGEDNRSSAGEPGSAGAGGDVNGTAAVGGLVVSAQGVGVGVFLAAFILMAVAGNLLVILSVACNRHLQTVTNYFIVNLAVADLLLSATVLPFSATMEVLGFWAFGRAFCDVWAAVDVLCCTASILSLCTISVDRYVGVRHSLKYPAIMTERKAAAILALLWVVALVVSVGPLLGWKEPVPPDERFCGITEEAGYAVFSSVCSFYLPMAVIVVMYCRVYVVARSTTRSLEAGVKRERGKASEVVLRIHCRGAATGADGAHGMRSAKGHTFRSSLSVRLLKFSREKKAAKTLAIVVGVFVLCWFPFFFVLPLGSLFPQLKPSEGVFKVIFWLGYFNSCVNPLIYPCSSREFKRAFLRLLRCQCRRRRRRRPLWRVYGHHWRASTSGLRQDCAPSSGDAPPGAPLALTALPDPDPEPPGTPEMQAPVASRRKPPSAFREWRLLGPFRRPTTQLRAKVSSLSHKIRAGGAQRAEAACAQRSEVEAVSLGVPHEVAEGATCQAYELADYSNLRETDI
Put plainly: Radioligand binding, adrenergic α1D ([3H]Prazosin). The protocol: Compounds were incubated with 0.6 nM [3H]Prazosin for 60 min at 25° C. Non-specific binding was estimated in the presence of 10 μM phentolamine. Receptor proteins were filtered and washed, the filters were then counted to determine [3H]Prazosin specifically bound. […] Biochemical assay results are presented as the percent inhibition of specific binding in Table B1.

Where [5] appears, read: 0.1 μM compound, read-out: Percentage inhibition of ligand binding, Adrenergic α2B.
Setting [6] is: 0.1 μM compound, read-out: Percentage inhibition of ligand binding, Adrenergic α2A.
The mark [7] stands for this setting: 0.1 μM compound, read-out: Percentage inhibition of ligand binding, Adrenergic α1B.
Setting [8] is: 0.1 μM compound, read-out: Percentage inhibition of ligand binding, Adrenergic α1D.
The mark [9] stands for this setting: read-out: Percentage inhibition of ligand binding, Adrenergic α2B (0.1 μM), compound at 0.1 μM, [3H]Rauwolscine, repeat datapoints each shown.
The mark [10] stands for this setting: read-out: Percentage inhibition of ligand binding, Adrenergic α2A (0.1 μM), compound at 0.1 μM, [3H]MK-912, repeat datapoints each shown.
Where [11] appears, read: read-out: Percentage inhibition of ligand binding, Adrenergic α1B (0.1 μM), compound at 0.1 μM, [3H]Prazosin, repeat datapoints each shown.
Where [12] appears, read: read-out: Percentage inhibition of ligand binding, Adrenergic α1D (0.1 μM), compound at 0.1 μM, [3H]Prazosin, repeat datapoints each shown.

As usually defined, the inhibition is the change of the read-out against control, counted positive when it falls. On to `COc1cc(/C(C)=C/n2c3c(c4cc(C)ccc42)CN(C)CC3)ccn1` [compound 269], for which the inhibition at 0.1 µM in experiment [1] (setting [5]) was 83%; in experiment [2] (setting [6]) it was 61%; in experiment [3] (setting [7]) it was 36%; in experiment [4] (setting [8]), 44%.
As to `C/C(=C\n1c2c(c3cc(Cl)ccc31)CCN(C)CC2)c1ccccc1F` [compound 233], the inhibition at 0.1 µM amounted to 103% in experiment [1] (setting [9]), 80% in experiment [2] (setting [10]), 73% in experiment [3] (setting [11]) and 28% in experiment [4] (setting [12]).
On to `Cc1ccc2c(c1)c1c(n2CCc2ccc(C)nc2)C(c2ccccc2)N(C)CC1` (centres unmarked) [compound 314], for which the inhibition at 0.1 µM in experiment [1] (setting [5]) turned out to be 50%; in experiment [2] (setting [6]) it was 91%; in experiment [3] (setting [7]), 92%; in experiment [4] (setting [8]), 71%.
On to `C/C(=C\n1c2c(c3cc(C)ccc31)CCN(C)CC2)c1cccnc1` [compound 245], for which the inhibition at 0.1 µM in experiment [1] (setting [5]) is 96%; in experiment [2] (setting [6]) it was 65%; in experiment [3] (setting [7]) it was 69%; in experiment [4] (setting [8]), 35%.
As for `C/C(=C\n1c2c(c3cc(C)ccc31)C1CCC(C2)N1C)c1ccc(Cl)cc1Cl` (centres unmarked) [compound 225], the inhibition at 0.1 µM in experiment [1] (setting [9]) was 80%; in experiment [2] (setting [10]), 75%; in experiment [3] (setting [11]) it was 27%; in experiment [4] (setting [12]), 12%.
For `C/C(=C\n1c2c(c3cc(C)ccc31)CCN(C)CC2)c1ccc(Cl)c(Cl)c1` [compound 238], in that order: 98%, 94%, 67% and 25%.
Take `Cc1ccc2c(c1)c1c(n2CC(C)(O)c2ccc(C)nc2)CCN(C)C1` (centres unmarked) [compound 29]: the inhibition at 0.1 µM in experiment [1] (compound at 0.1 μM, [3H]Rauwolscine, repeat assays, each datapoint shown, read-out: Percentage inhibition of ligand binding, Adrenergic α2B) amounted to 100%; in experiment [2] (compound at 0.1 μM, [3H]MK-912, repeat assays, each datapoint shown, read-out: Percentage inhibition of ligand binding, Adrenergic α2A) it was 10%; in experiment [3] (compound at 0.1 μM, [3H]Prazosin, repeat assays, each datapoint shown, read-out: Percentage inhibition of ligand binding, Adrenergic α1B) it was 24%; in experiment [4] (compound at 0.1 μM, [3H]Prazosin, repeat assays, each datapoint shown, read-out: Percentage inhibition of ligand binding, Adrenergic α1D) it was 1%.
As to `Cc1ccc(CCn2c3c(c4ccc(Cl)cc42)CN(C)CC3)cn1` [compound 315], the inhibition at 0.1 µM was determined as 48% in experiment [1] (setting [5]), 59% in experiment [2] (setting [6]), 4% in experiment [3] (setting [7]) and 3% in experiment [4] (setting [8]).
As to `Cc1ccc2c(c1)c1c(n2CC(C)(F)c2ccncc2)CCN(C)C1` (centres unmarked) [compound 102], the inhibition at 0.1 µM in experiment [1] (setting [9]) was found to be 77%; in experiment [2] (setting [10]) it was 21%; in experiment [3] (setting [11]), 40%; in experiment [4] (setting [12]), 21%.
Consider `C/C(=C\n1c2c(c3cc(C)ccc31)CN(C)CC2)c1ccc2[nH]cnc2c1` [compound 282], for which the inhibition at 0.1 µM in experiment [1] (setting [5]) was 101%; in experiment [2] (setting [6]), 75%; in experiment [3] (setting [7]) it was 33%; in experiment [4] (setting [8]), 30%.
Take `C/C(=C\n1c2c(c3cc(Cl)ccc31)CN(C)CC2)c1cccc(S(C)(=O)=O)c1` [compound 296]: the inhibition at 0.1 µM in experiment [1] (setting [5]) is 70%; in experiment [2] (setting [6]), 60%; in experiment [3] (setting [7]), 20%; in experiment [4] (setting [8]), 33%.
For `Cc1ccc2c(c1)c1c(n2C#Cc2cccc(N(C)C)c2)CCN(C)C1` [compound 256], in that order: 58%, 55%, 47% and 23%.
For `C/C(=C\n1c2c(c3cc(C)cc(C)c31)CN(C)CC2)c1ccncc1` [compound 312], in that order: 93%, 56%, 71% and 50%.
With `C/C(=C\n1c2c(c3cc(Cl)ccc31)CN(C)CC2)c1ccc(S(C)(=O)=O)cc1` [compound 281], the inhibition at 0.1 µM in experiment [1] (setting [5]) was 90%; in experiment [2] (setting [6]), 72%; in experiment [3] (setting [7]), 67%; in experiment [4] (setting [8]) it was 47%.
